Measurements from patent US11306079B2, “3-(5-amino-pyrazin-2-yl)-benzenesulfonamide derivatives and related compounds as PI3K-gamma kinase inhibitors” (Incyte Corporation, priority 2017, dated 2022).
pIC50: −log10 of the molar value. Where a name gives a salt, the structure may show the parent alone.

Tests used:
[1] = biological target: PI3Kγ (p110γ) Recombinant Human Protein (Homo sapiens (Human), UniProt P48736); experiment: PI3K-γ Scintillation Proximity Assay; format: biochemical; conditions: 20 μM PIP2, 2 μM ATP, 13 nM PI3Kγ, 120 min, room temperature
Source text: Example B. PI3K-γ Scintillation Proximity Assay
(§1) [γ-^33P]ATP (10 mCi/mL) and Wheat Germ Agglutinin (WGA) YSi SPA Scintillation Beads was purchased from Perkin-Elmer (Waltham, Mass.). Lipid kinase substrate, D-myo-Phosphatidylinositol 4,5-bisphosphate (PtdIns(4,5)P2)D (+)-sn-1,2-di-O-octanoylglyceryl, 3-O-phospho linked (PIP2), CAS 204858-53-7, was purchased from Echelon Biosciences (Salt Lake City, Utah). PI3Kγ (p110γ) Recombinant Human Protein was purchased from Life technology (Grand island, NY), ATP, MgCl2, DTT, EDTA, MOPS and CHAPS were purchased from Sigma-Aldrich (St. Louis, Mo.).
(§2) The kinase reaction was conducted in polystyrene 384-well Greiner Bio-one white plate from Thermo Fisher Scientific in a final volume of 25 μL. Inhibitors were first diluted serially in DMSO and added to the plate wells before the addition of other reaction components. The final concentration of DMSO in the assay was 2%. The PI3Kγ assay was carried out at room temperature in 20 mM MOPS, pH 6.7, 10 mM MgCl2, 5 mM DTT and CHAPS 0.03%. Reactions were initiated by the addition of ATP, the final reaction mixture consisted of 20 μM PIP2, 2 μM ATP, 0.5 μCi [γ-^33P] ATP, 13 nM PI3Kγ. Reactions were incubated for 120 min and terminated by the addition of 40 μL SPA beads suspended in quench buffer: 163 mM potassium phosphate pH 7.8, 20% glycerol, 25 mM EDTA. The final concentration of SPA beads is 1.0 mg/mL. After the plate sealing, plates were shaken overnight at room temperature and centrifuged at 1500 rpm for 10 min, the radioactivity of the product was determined by scintillation counting on Topcount (Perkin-Elmer). IC50 determination was performed by fitting the curve of percent of the solvent control activity versus the log of the inhibitor concentration using the GraphPad Prism 6.0 software.

[2] = biological target: PI3Kδ (p110δ/p85α) Recombinant Human Protein (Homo sapiens (Human), UniProt O00329); experiment: PI3Kδ Scintillation Proximity Assay; format: biochemical; conditions: 20 μM PIP2, 2 μM ATP, 3.4 nM PI3Kδ, 120 min, room temperature
Source text: Example C. PI3Kδ Scintillation Proximity Assay
as §1, with “PI3Kδ (p110δ/p85α)” for “PI3Kγ (p110γ)”, “Eurofins (St Charles, Mo.).” for “Life technology (Grand island, NY),”
as §2, with “PI3Kδ” for “PI3Kγ”, “3.4” for “13”, “PI3Kδ.” for “PI3Kγ.”

[3] = test system: Phosphorylated Ribosomal Protein S6 (RPS6) in THP-1 cells; experiment: THP-1 RPS6 ELISA Assay; format: cell-based; conditions: Homo sapiens; serum starved THP-1 cells, 2 hours with compound, 10 nM MCP-1 for 15 minutes, Phospho-RPS6 ELISA; read-out: PI3Kγ_THP1_RPS6_ELISA IC50
Method: Example A. THP-1 RPS6 ELISA Assay
To measure the Phosphorylated Ribosomal Protein S6 (RPS6) in cell lysates, THP-1 cells (Human Acute Monocytic Leukemia) are purchased from ATCC (Manassas, Va.) and maintained in RPMI with 10% FBS (Gibco/Life Technologies, Carlsbad, Calif.). For the assay, THP-1 cells are serum starved overnight in RPMI, then plated in RPMI (2×10^5 cells/well in 90 μL) into 96-well flat-bottom tissue culture treated plates (Corning, Corning, N.Y.), in the presence or absence of a concentration range of test compounds. Covered plates are incubated for 2 hours at 37° C., 5% CO2 then treated with or without 10 nM MCP-1 (MYBioSource, San Diego, Calif.) for 15 minutes at 37° C., 5% CO2. Plates are centrifuged at 1600 RPM and supernatants are removed. Cells are lysed in Lysis Buffer (Cell Signaling, Danvers, Mass.) with Protease Inhibitor (Calbiochem/EMD, Germany), PMSF (Sigma, St Louis Mo.), HALTS (Thermo Fisher, Rockford, Ill.) for 30 min on wet ice. Cell lysates are frozen at −80° C. before testing. The lysates are tested in the Human/Mouse/Rat Phospho-RPS6 ELISA (R&D Systems, Inc. Minn, Minn.). The plate is measured using a microplate reader (SpectraMax M5—Molecular Devices, LLC Sunnyvale, Calif.) set to 450 nm with a wavelength correction of 540. IC50 determination is performed by fitting the curve of inhibitor percent inhibition versus the log of the inhibitor concentration using the GraphPad Prism 5.0 software.

Sequence of PI3Kγ (p110γ) Recombinant Human Protein (P48736 whole entry): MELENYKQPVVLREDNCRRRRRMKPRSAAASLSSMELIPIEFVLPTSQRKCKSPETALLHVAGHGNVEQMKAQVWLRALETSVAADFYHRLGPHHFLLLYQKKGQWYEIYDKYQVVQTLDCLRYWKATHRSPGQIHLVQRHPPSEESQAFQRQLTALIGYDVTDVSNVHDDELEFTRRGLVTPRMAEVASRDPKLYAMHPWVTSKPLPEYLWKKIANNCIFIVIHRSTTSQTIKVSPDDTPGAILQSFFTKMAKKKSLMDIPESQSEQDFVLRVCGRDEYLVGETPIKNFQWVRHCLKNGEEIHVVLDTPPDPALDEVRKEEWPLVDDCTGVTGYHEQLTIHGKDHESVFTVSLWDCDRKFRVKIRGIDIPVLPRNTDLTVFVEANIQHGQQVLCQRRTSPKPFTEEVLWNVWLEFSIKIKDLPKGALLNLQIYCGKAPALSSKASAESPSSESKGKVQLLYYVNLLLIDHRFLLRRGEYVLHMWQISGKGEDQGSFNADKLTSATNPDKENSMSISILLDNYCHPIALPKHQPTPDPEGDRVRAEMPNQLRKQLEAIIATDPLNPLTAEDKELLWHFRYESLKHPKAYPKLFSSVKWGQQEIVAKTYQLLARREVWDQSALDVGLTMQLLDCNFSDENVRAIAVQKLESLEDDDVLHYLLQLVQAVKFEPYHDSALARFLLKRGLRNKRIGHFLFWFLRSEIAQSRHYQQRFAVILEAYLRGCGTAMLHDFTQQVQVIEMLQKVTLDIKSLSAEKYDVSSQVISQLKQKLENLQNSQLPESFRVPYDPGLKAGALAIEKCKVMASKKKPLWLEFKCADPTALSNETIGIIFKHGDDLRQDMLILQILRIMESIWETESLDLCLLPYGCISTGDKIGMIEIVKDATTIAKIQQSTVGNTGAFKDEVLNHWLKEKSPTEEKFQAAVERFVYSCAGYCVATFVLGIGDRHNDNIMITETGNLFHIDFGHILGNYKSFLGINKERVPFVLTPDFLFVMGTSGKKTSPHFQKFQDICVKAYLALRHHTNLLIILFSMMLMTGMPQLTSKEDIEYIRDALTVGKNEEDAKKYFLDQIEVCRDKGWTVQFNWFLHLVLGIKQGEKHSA
Sequence of PI3Kδ (p110δ/p85α) Recombinant Human Protein (O00329 whole entry): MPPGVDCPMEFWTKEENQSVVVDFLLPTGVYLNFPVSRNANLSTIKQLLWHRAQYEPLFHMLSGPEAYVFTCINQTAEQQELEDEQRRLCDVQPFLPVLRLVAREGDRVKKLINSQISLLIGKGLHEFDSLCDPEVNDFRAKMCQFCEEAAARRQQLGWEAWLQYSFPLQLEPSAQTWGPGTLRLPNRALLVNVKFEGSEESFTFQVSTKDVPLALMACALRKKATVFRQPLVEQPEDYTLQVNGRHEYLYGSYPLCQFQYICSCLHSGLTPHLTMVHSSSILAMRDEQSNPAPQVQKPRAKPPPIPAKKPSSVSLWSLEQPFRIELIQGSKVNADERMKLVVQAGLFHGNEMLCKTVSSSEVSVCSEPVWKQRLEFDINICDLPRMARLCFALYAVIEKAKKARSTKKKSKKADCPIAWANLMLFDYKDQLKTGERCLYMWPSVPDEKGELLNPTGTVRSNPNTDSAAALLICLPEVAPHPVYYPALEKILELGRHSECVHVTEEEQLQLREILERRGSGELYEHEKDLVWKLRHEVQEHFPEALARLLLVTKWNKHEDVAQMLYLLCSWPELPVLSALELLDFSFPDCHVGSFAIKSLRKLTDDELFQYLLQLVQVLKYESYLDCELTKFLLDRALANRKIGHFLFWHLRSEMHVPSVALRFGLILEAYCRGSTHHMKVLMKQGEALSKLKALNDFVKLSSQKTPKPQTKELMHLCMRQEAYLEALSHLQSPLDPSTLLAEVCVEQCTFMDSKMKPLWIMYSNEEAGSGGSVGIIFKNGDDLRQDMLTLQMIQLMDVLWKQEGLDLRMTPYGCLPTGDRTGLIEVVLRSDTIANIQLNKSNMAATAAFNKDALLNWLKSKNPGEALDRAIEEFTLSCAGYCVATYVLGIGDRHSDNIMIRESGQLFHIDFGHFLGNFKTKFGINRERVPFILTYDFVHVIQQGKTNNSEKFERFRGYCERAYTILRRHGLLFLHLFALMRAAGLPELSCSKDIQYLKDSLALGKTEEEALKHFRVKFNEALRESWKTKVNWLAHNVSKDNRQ
Sequence of PI3Kδ (p110δ/p85α) Recombinant Human Protein (P27986 whole entry partner): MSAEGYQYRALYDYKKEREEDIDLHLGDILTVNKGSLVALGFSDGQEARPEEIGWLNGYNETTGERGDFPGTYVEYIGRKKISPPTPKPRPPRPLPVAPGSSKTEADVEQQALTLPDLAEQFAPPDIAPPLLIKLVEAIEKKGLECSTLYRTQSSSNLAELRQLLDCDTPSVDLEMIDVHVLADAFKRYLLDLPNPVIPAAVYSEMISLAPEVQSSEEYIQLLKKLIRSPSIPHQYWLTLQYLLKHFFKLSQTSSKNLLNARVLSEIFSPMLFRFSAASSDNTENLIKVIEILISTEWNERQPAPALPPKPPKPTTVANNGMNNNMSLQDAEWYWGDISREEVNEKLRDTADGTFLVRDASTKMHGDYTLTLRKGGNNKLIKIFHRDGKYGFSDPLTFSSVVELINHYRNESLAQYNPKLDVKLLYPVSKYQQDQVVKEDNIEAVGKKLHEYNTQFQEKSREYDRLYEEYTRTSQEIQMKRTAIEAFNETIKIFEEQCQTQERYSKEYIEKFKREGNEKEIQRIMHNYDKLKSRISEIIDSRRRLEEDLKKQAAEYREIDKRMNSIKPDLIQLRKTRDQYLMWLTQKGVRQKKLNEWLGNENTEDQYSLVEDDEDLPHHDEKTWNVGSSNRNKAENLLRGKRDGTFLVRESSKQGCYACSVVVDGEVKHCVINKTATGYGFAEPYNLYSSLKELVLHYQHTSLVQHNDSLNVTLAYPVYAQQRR

SMILES | pIC50 [1] | pIC50 [2] | pIC50 [3]
Cc1ccc(S(=O)(=O)NC23CC(C#N)(C2)C3)cc1-c1cnc(N)c(-c2ncn(C)n2)n1 [Example 45, 3-(5-Amino-6-(1-methyl-1H-1,2,4-triazol-3-yl)pyrazin-2-yl)-N-(3-cyanobicyclo[1.1.1]pentan-1-yl)-4-methylbenzenesulfonamide Trifluoroacetate Salt] | ≥ 7.00 | ≥ 6.30 | ≥ 6.30
[2H]C([2H])([2H])c1ccc(S(=O)(=O)NC23CCN(CC2)C3)cc1-c1cnc(N)c(-c2cnco2)n1 [Example 94, 3-(5-amino-6-(oxazol-5-yl)pyrazin-2-yl)-N-(1-azabicyclo[2.2.1]heptan-4-yl)-4-(methyl-d3)benzenesulfonamide] | ≥ 7.00 | ≥ 6.30 | ≥ 7.00
Cc1ccc(S(=O)(=O)NC23CCC(C#N)(C2)C3)cc1-c1cnc(N)c(-n2cncn2)n1 [Example 28, 3-(5-Amino-6-(1H-1,2,4-triazol-1-yl)pyrazin-2-yl)-N-(4-cyanobicyclo[2.1.1]hexan-1-yl)-4-methylbenzenesulfonamide trifluoroacetate salt] | ≥ 7.00 | ≥ 6.30 | ≥ 7.00
Cc1ccc(S(=O)(=O)NC23CCC(O)(CC2)C3)cc1-c1cnc(N)c(-c2cccnc2)n1 [Example 16, 3-(5-Amino-6-(pyridin-3-yl)pyrazin-2-yl)-N-(4-hydroxybicyclo[2.2.1]heptan-1-yl)-4-methylbenzenesulfonamide Trifluoroacetate Salt] | ≥ 7.00 | ≥ 7.00 | ≥ 6.30
[2H]C([2H])([2H])c1ccc(S(=O)(=O)NC23CCC(C#N)(C2)C3)cc1-c1cnc(N)c(-c2cncnc2)n1 [Example 64, 3-(5-Amino-6-(pyrimidin-5-yl)pyrazin-2-yl)-N-(4-cyanobicyclo[2.1.1]hexan-1-yl)-4-(methyl-d3)benzenesulfonamide trifluoroacetate salt] |  |  | ≥ 7.00
Cc1ccc(S(=O)(=O)NC23CCC(C#N)(C2)C3)cc1-c1cnc(N)c(-c2nn[nH]n2)n1 [Example 37, 3-(5-Amino-6-(2H-tetrazol-5-yl)pyrazin-2-yl)-N-(4-cyanobicyclo[2.1.1]hexan-1-yl)-4-methylbenzenesulfonamide Trifluoroacetate Salt] | ≥ 7.00 | ≤ 5.70 | 
[2H]C([2H])([2H])c1ccc(S(=O)(=O)NC23CC(CO)(C2)C3)cc1-c1cnc(N)c(-n2nccn2)n1 [Example 51, 3-(5-Amino-6-(2H-1,2,3-triazol-2-yl)pyrazin-2-yl)-N-(3-(hydroxymethyl)bicyclo[1.1.1]pentan-1-yl)-4-(methyl-d3)benzenesulfonamide Trifluoroacetate Salt] | ≥ 7.00 | > 5.70 | 
[2H]C([2H])([2H])c1ccc(S(=O)(=O)NC23CNC(C2)C3)cc1-c1cnc(N)c(-n2nccn2)n1 [Example 52, 3-(5-Amino-6-(2H-1,2,3-triazol-2-yl)pyrazin-2-yl)-N-(2-azabicyclo[2.1.1]hexan-4-yl)-4-(methyl-d3)benzenesulfonamide Trifluoroacetate Salt] | ≥ 6.30 | ≥ 6.30 | 
Cc1ccc(S(=O)(=O)NC23CC(C#N)(C2)C3)cc1-c1cnc(N)c(-c2nn[nH]n2)n1 [Example 36, 3-(5-Amino-6-(2H-tetrazol-5-yl)pyrazin-2-yl)-N-(3-cyanobicyclo[1.1.1]pentan-1-yl)-4-methylbenzenesulfonamide Trifluoroacetate Salt] | ≥ 7.00 | ≤ 5.70 | 
[2H]C([2H])([2H])c1ccc(S(=O)(=O)NC23CC(C2)N(C(C)C)C3)cc1-c1cnc(N)c(-n2cncn2)n1 [Example 60, 3-(5-Amino-6-(1H-1,2,4-triazol-1-yl)pyrazin-2-yl)-N-(2-isopropyl-2-azabicyclo[2.1.1]hexan-4-yl)-4-(methyl-d3)benzenesulfonamide Trifluoroacetate Salt] | ≥ 7.00 | ≥ 6.30 | 
O=C(O)C(F)(F)F.[2H]C([2H])([2H])c1ccc(S(=O)(=O)NC23CNC(C2)C3)cc1-c1cnc(N)c(-n2cncn2)n1 [Example 53, 3-(5-Amino-6-(1H-1,2,4-triazol-1-yl)pyrazin-2-yl)-N-(2-azabicyclo[2.1.1]hexan-4-yl)-4-(methyl-d3)benzenesulfonamide trifluoroacetate salt] | ≥ 7.00 | ≥ 6.30 | 
Cc1ccc(S(=O)(=O)NC23COC(CO)(C2)C3)cc1-c1cnc(N)c(-c2cn(C)nc2C)c1 [Example 84, 3-(6-amino-5-(1,3-dimethyl-1H-pyrazol-4-yl)pyridin-3-yl)-N-(1-(hydroxymethyl)-2-oxabicyclo[2.1.1]hexan-4-yl)-4-methylbenzenesulfonamide] | ≥ 6.30 | ≥ 6.30 | 
Cc1ccc(S(=O)(=O)NC23CC(C(=O)N(C)C)(C2)C3)cc1-c1cnc(N)c(-n2cncn2)n1 [Example 33, 3-(3-(5-Amino-6-(1H-1,2,4-triazol-1-yl)pyrazin-2-yl)-4-methylphenylsulfonamido)-N,N-dimethylbicyclo[1.1.1]pentane-1-carboxamide trifluoroacetate salt] | ≥ 7.00 | ≥ 6.30 | 
Cc1ccc(S(=O)(=O)NC23CCC(CO)(CC2)OC3)cc1-c1cnc(N)c(-c2ccncc2C#N)n1 [Example 22, 3-(5-Amino-6-(3-cyanopyridin-4-yl)pyrazin-2-yl)-N-(1-(hydroxymethyl)-2-oxabicyclo[2.2.2]octan-4-yl)-4-methylbenzenesulfonamide trifluoroacetate salt] | > 5.70 | ≤ 5.70 | 
CNC(=O)C12CC(NS(=O)(=O)c3ccc(C)c(-c4cnc(N)c(-n5cncn5)n4)c3)(C1)C2 [Example 32, 3-(3-(5-Amino-6-(1H-1,2,4-triazol-1-yl)pyrazin-2-yl)-4-methylphenylsulfonamido)-N-methylbicyclo[1.1.1]pentane-1-carboxamide trifluoroacetate Salt] | ≥ 7.00 | > 5.70 | 
